One assay has as its target JAK2 (Invitrogen) kinase (Homo sapiens (Human), UniProt O60674). Description: JAK2 radioactive kinase assay. The assay is classed as biochemical. As to conditions: compound at 10 μM; ATP at 10 μM; substrate poly[Glu:Tyr] (4:1). The protocol:
Peptide substrate, [[…]], (20 μM) was prepared in reaction buffer (20 mM Hepes pH 7.5, 10 mM MgCl2, 1 mM EGTA, 0.02% Brij35, 0.02 mg/mL BSA, 0.1 mM […], 2 mM DTT, 1% DMSO. TYK2 (Invitrogen) kinase was added, followed by compounds in DMSO. 33PATP was added to initiate the reaction in ATP at 10 μM. Kinase reaction was incubated for 120 min at room temp and reactions were spotted onto P^81 ion exchange paper (Whatman #3698-915), and then washed extensively in 0.75% phosphoric acid, prior to reading the radioactivity counts. For JAK2 (Invitrogen) kinase assay the peptide substrate poly[Glu:Tyr] (4:1), 0.2 mg/mL was used, in the reaction carried out the same as for TYK2.

For assay [1], the target named is human TYK2 (JH2domain-pseudokinase) (Homo sapiens (Human), UniProt P29597). The experiment in a line: TYK2 JH2 domain binding assay (KINOMEscan, DiscoveRx). As to conditions: 11-point 3-fold dilution, top concentration 30,000 nM, duplicate; read-out: hTYK2_JH2_Binding (Kd; nM). The protocol: From these HEK 293 cells, extracts were prepared in M-PER extraction buffer (Pierce) in the presence of Protease Inhibitor Cocktail Complete (Roche) and Phosphatase Inhibitor Cocktail Set II (Merck) per manufacturers' instructions. The TYK2 (JH2domain-pseudokinase) fusion protein was labeled with a chimeric double-stranded DNA tag containing the NFkB binding site (5′-[…]-3′) fused to an amplicon for qPCR readout, which was added directly to the expression extract (the final concentration of DNA-tag in the binding reaction is 0.1 nM).
Sequence of human TYK2 (JH2domain-pseudokinase) (P29597 556-888): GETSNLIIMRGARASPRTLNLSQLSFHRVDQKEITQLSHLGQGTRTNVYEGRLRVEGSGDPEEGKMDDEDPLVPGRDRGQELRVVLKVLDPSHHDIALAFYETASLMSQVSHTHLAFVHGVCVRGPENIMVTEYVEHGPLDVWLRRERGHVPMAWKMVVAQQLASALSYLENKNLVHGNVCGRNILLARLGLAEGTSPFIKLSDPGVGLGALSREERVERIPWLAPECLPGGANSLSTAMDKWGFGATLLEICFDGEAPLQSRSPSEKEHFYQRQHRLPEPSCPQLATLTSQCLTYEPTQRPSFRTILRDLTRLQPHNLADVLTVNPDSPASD
The liganded beads were blocked with excess biotin and washed with blocking buffer (SeaBlock (Pierce), 1% BSA, 0.05% Tween 20, 1 mM DTT) to remove unbound ligand and to reduce nonspecific binding.
Extracts were loaded with DNA-tag and diluted into the binding reaction in a two step process. First extracts were diluted 1:100 in 1× binding buffer (PBS/0.05% Tween 20/10 mM DTT/0.1% BSA/2 μg/ml sonicated salmon sperm DNA) containing 10 nM DNA-tag. […] Kds were determined using an 11-point 3-fold compound dilution series with three DMSO control points. […]
Kds were determined using an 11-point 3-fold compound dilution series with three DMSO control points. […] The Kds were determined using a compound top concentration of 30,000 nM. […]
Binding constants (Kds) were calculated with a standard dose-response curve using the Hill equation: […]

Assay [2] deals with IL-12 induced STAT4 phosphorylation mediated by TYK2/JAK2. Description: IL-12 induced pSTAT4 in human PBMC. The assay is classed as cell-based. Particulars: 1 hr compound, 1.7 ng/mL IL-12 for 30 minutes. In short, it runs like this: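 Thawed human PBMC were pre-incubated with compound for 1 hr at 37 °C (0.1% DMSO), then stimulated with 1.7 ng/mL IL-12 for 30 minutes. Phospho-STAT4 and total STAT4 were measured in cell lysates by MSD.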

The structures appear in SMILES notation.

Sequence of JAK2 (Invitrogen) kinase (O60674 whole entry): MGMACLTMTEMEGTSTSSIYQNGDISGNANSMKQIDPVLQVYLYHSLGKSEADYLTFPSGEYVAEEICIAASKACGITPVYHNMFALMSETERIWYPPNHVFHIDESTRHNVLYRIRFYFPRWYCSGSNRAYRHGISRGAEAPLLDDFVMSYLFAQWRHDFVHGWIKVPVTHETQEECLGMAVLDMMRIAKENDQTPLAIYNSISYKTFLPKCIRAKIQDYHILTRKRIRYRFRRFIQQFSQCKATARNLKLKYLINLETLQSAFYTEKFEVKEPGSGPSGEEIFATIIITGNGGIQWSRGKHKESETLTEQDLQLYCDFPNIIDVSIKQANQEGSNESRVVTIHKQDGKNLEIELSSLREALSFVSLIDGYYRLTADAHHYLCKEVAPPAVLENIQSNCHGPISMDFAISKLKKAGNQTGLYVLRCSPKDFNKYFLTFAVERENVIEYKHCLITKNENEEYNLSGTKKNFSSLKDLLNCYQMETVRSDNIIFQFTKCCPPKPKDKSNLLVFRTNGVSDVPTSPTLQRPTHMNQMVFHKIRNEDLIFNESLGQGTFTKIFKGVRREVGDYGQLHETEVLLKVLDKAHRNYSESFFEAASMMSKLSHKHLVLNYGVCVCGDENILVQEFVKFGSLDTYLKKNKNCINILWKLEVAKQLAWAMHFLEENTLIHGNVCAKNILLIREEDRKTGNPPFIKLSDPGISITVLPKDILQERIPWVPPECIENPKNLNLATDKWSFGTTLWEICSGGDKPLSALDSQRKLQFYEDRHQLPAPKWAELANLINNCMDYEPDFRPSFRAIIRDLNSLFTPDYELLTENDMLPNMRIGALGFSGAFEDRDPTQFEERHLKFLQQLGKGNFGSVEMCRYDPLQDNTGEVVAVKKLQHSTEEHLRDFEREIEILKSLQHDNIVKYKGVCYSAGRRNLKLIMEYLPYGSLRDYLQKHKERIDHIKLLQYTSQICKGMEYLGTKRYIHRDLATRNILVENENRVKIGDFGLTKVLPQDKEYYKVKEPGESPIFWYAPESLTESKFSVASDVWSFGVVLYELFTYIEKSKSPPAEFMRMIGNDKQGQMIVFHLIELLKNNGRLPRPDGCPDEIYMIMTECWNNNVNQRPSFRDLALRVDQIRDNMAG

For the molecule `CNc1cc(Nc2cccn([C@H]3CC[C@H](OC)CC3)c2=O)nc2c(C(=O)N[C@@H]3CC[C@@H](OC)C3)cnn12` [I-69, 5-((1-((1r,4R)-4-Methoxycyclohexyl)-2-oxo-1,2-dihydropyridin-3-yl)amino)-N-((1R,3R)-3-methoxycyclopentyl)-7-(methylamino)pyrazolo[1,5-a]pyrimidine-3-carboxamide], the “JAK2 (% Inhibition at 10 μM)” value at JAK2 (Invitrogen) kinase was “A (had a percent inhibition at 10 μM lower than 50)”.

Regarding `CNc1cc(Nc2cccn([C@H]3CC[C@H](OC)CC3)c2=O)nc2c(C(=O)N[C@H]3CC[C@H](OC)C3)cnn12` [I-70, 5-((1-((1r,4S)-4-Methoxycyclohexyl)-2-oxo-1,2-dihydropyridin-3-yl)amino)-N-((1S,3S)-3-methoxycyclopentyl)-7-(methylamino)pyrazolo[1,5-a]pyrimidine-3-carboxamide], the “JAK2 (% Inhibition at 10 μM)” value on JAK2 (Invitrogen) kinase is recorded as “A (had a percent inhibition at 10 μM lower than 50)”. Usually Kd stands for the equilibrium constant for the complex coming apart. By IC50 is commonly meant the point on the concentration scale where inhibition reaches its midpoint. With `CNc1cc(-c2cn([C@H]3CO[C@@H](COC)C3)c3ncccc23)nc2c(C(=O)N[C@H]3CC[C@@H]3OC)cnn12` [I-1018, N-((1S,2S)-2-methoxycyclobutyl)-5-(1-(5-(methoxymethyl)tetrahydrofuran-3-yl)-1H-pyrrolo[2,3-b]pyridin-3-yl)-7-(methylamino)pyrazolo[1,5-a]pyrimidine-3-carboxamide], the Kd in assay [1] was under 0.2 nM. In assay [2], the IC50 is under 0.1 µM.
